# pIC50: −log10 of the molar value.
# Tests used:
# [1] = molecular target: T1, Btk enzyme (His-tagged, full-length) (Homo sapiens, UniProt Q06187); test: Bruton's Tyrosine Kinase (Btk) Inhibition Assay (33P filtration capture); format: biochemical; conditions: Bruton's tyrosine kinase Assay (Example 34), 100 μM ATP
# T1 construct: 5-10 nM Btk enzyme (His-tagged, full-length); His
# From the text: Bruton's Tyrosine Kinase (Btk) Inhibition Assay
# The assay is a capture of radioactive ^33P phosphorylated product through filtration. The interactions of Btk, biotinylated SH2 peptide substrate (Src homology), and ATP lead to phosphorylation of the peptide substrate. Biotinylated product is bound streptavidin sepharose beads. All bound, radiolabeled products are detected by scintillation counter.
# Plates assayed are 96-well polypropylene (Greiner) and 96-well 1.2 μm hydrophilic PVDF filter plates (Millipore).
# IC50 determinations are calculated from 10 data points per compound utilizing data produced from a standard 96-well plate assay template. One control compound and seven unknown inhibitors were tested on each plate and each plate was run twice. […] The control compound was staurosporine. Background was counted in the absence of peptide substrate. Total activity was determined in the presence of peptide substrate. The following protocol was used to determine Btk inhibition.
# 1) Sample preparation: The test compounds were diluted at half-log increments in assay buffer (imidazole, glycerol-2-phosphate, EGTA, MnCl2, MgCl2, BSA).
# 2) Bead preparation • a.) rinse beads by centrifuging at 500 g • b.) reconstitute the beads with PBS and EDTA to produce a 20% bead slurry
# 3) Pre-incubate reaction mix without substrate (assay buffer, DTT, ATP, ^33P ATP) and mix with substrate (assay buffer, DTT, ATP, ^33P ATP, peptide substrate) 30° C. for 15 min.
# 4) To start assay, pre-incubate 10 μL Btk in enzyme buffer (imidazole, glycerol-2-phosphate, BSA) and 10 μL of test compounds for 10 min at RT.
# 5) Add 30 μL reaction mixture without or with substrate to Btk and compounds.
# 6) Incubate 50 μL total assay mix for 30 min at 30° C.
# 7) Transfer 40 μL of assay to 150 μL bead slurry in filter plate to stop reaction.
# 8) Wash filter plate after 30 min, with following steps • a. 3×250 μL NaCl • b. 3×250 μL NaCl containing 1% phosphoric acid • c. 1×250 μL H2O
# 9) Dry plate for 1 h at 65° C. or overnight at RT
# 10) Add 50 μL microscint-20 and count ^33P cpm on scintillation counter.
# Calculate percent activity from raw data in cpm percent activity=(sample−bkg)/(total activity−bkg)×100
# Calculate IC50 from percent activity, using one-site dose response sigmoidal model y=A+((B−A)/(1+((x/C)^D))))
# Ramos cells = test: Inhibition of B-cell Activation - B cell FLIPR assay in Ramos cells; format: cell-based; conditions: Homo sapiens, 0.5 h, intracellular calcium increase stimulated by 10 μg/mL anti-IgM, compounds incubated 30 min at RT
# From the text: Inhibition of B-cell Activation—B cell FLIPR assay in Ramos cells
# The B cell FLIPR assay is a cell based functional method of determining the effect of potential inhibitors of the intracellular calcium increase from stimulation by an anti-IgM antibody. Ramos cells (human Burkitt's lymphoma cell line. ATCC-No. CRL-1596) were cultivated in Growth Media (described below). One day prior to assay, Ramos cells were resuspended in fresh growth media (same as above) and set at a concentration of 0.5×10^6/mL in tissue culture flasks. On day of assay, cells are counted and set at a concentration of 1×10^6/mL1 in growth media supplemented with 1 μM FLUO-3AM(TefLabs Cat-No. 0116, prepared in anhydrous DMSO and 10% Pluronic acid) in a tissue culture flask, and incubated at 37° C. (4% CO2) for one h. To remove extracellular dye, cells were collected by centrifugation (5 min, 1000 rpm), resuspended in FLIPR buffer (described below) at 1×10^6 cells/mL and then dispensed into 96-well poly-D-lysine coated black/clear plates (BD Cat-No. 356692) at 1×10^5 cells per well. Test compounds were added at various concentrations ranging from 100 μM to 0.03 μM (7 concentrations, details below), and allowed to incubate with cells for 30 min at RT. Ramos cell Ca^2+ signaling was stimulated by the addition of 10 μg/mL anti-IgM (Southern Biotech, Cat-No. 2020-01) and measured on a FLIPR (Molecular Devices, captures images of 96 well plates using a CCD camera with an argon laser at 480nm excitation).
# Growth Medium: RPMI 1640 medium with L-glutamine (Invitrogen, Cat-No. 61870-010), 10% Fetal Bovine Serum (FBS, Summit Biotechnology Cat-No. FP-100-05); 1 mM Sodium Pyruvate (Invitrogen Cat. No. 11360-070).
# FLIPR buffer: HBSS (Invitrogen, Cat-No. 141175-079), 2 mM CaCl2 (Sigma Cat-No. C-4901), HEPES (Invitrogen, Cat-No. 15630-080), 2.5mM Probenecid (Sigma, Cat-No. P-8761), 0.1% BSA (Sigma, Cat-No. A-7906), 11 mM Glucose (Sigma, Cat-No. G-7528)
# Compound dilution details:
# In order to achieve the highest final assay concentration of 100 μM, 24 μL of 10 mM compound stock solution (made in DMSO) is added directly to 576 μL of FLIPR buffer. The test compounds are diluted in FLIPR Buffer (using Biomek 2000 robotic pipettor) resulting in the following dilution scheme: vehicle, 1.00×10^−4 M, 1.00×10^−5, 3.16×10^−6, 1.00×10^−6, 3.16×10^−7, 1.00×10^−7, 3.16×10^−8.
# Intracellular increases in calcium were reported using a max-min statistic (subtracting the resting baseline from the peak caused by addition of the stimulatory antibody using a Molecular Devices FLIPR control and statistic exporting software. The IC50 was determined using a non-linear curve fit (GraphPad Prism software). Representative results are in Table III.
# T1 sequence (Q06187 whole entry): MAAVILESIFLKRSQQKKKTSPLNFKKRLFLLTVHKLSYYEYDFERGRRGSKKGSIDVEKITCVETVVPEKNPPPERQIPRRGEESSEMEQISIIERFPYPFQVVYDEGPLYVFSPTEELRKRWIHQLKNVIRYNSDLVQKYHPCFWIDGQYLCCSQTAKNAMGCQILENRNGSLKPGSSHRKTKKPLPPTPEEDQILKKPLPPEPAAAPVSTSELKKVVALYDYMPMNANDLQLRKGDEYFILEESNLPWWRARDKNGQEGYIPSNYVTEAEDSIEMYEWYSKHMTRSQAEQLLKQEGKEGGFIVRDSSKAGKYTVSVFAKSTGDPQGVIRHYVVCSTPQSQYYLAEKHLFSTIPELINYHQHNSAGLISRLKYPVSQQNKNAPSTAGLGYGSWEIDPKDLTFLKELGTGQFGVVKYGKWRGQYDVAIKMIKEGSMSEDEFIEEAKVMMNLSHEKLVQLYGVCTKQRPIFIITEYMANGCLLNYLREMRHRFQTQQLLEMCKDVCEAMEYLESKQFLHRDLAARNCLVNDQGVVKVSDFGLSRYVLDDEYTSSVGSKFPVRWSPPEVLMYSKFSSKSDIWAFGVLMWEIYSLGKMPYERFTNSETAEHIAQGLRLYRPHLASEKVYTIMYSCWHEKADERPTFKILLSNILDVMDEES
pIC50 ([1]; Table II pyridinones),pIC50 (Ramos cells),pIC50 ([1]; Table I pyridazinones),melting point,Structure (SMILES)
> 8.00,8.40,,,"CCNC(=O)Nc1cc(-c2cccc(NC(=O)c3ccc(C(C)(C)C)cc3)c2CO)cn(C)c1=O [II-56, 4-tert-Butyl-N-{3-[5-(3-ethyl-ureido)-1-methyl-6-oxo-1,6-dihydro-pyridin-3-yl]-2-hydroxymethyl-phenyl}-benzamide]"
7.02,6.26,,291 to 292 °C,CNC(=O)Nc1cc(-c2cccc(NC(=O)c3ccc(N(C)C)cc3)c2C)cn(C)c1=O [II-13]
,7.17,,,"Cc1c(NC(=O)c2ccc(C(C)(C)C)cc2)cccc1-c1cc(Nc2ccc(C(=O)N3CCOCC3)cn2)c(=O)n(C)c1 [II-2, 4-tert-Butyl-N-(2-methyl-3-{1-methyl-5-[5-(morpholine-4-carbonyl)-pyridin-2-ylamino]-6-oxo-1,6-dihydro-pyridin-3-yl}-phenyl)-benzamide]"
,7.82,,,Cn1cc(-c2cccc(NC(=O)c3ccc(C(C)(C)C)cc3)c2CO)cc(Nc2ccc(C(=O)N3CCOCC3)cn2)c1=O [II-58]
5.91,,,169 to 170 °C,Cc1c(NC(=O)c2ccc(C(C)(C)C)cc2)cccc1-c1cc(NC(=O)NCc2ccccc2)c(=O)n(C)c1 [II-9]
6.51,,,185 to 186 °C,Cc1c(NC(=O)c2ccc(C(C)(C)C)cc2)cccc1-c1cc(NC(=O)NC(C)C)c(=O)n(C)c1 [II-6]
5.81,,,251 to 252 °C,CNC(=O)Nc1cc(-c2cccc(CC(=O)N3Cc4ccccc4C3)c2)cn(C)c1=O [II-45]
7.40,,,254 to 255 °C,"CNC(=O)Nc1cc(-c2cccc(NC(=O)c3cc4c(s3)CCCC4)c2C)cn(C)c1=O [II-11, 4,5,6,7-Tetrahydro-benzo[b]thiophene-2-carboxylic acid{2-methyl-3-[1-methyl-5-(3-methyl-ureido)-6-oxo-1,6-dihydro-pyridin-3-yl]-phenyl}-amide]"
5.14,,,219 to 220 °C,Cc1c(NC(=O)c2ccc(C(C)(C)C)cc2)cccc1-c1cc(NC(=O)Nc2ccccc2)c(=O)n(C)c1 [II-8]
5.36,,,118 to 119 °C,CNC(=O)Nc1cc(-c2cccc(CC(=O)N3CC(OC(C)C)C3)c2)cn(C)c1=O [II-30]
> 8.00,,,203 to 204 °C,"CCN(CC)Cc1ccc(Nc2cc(-c3cccc(NC(=O)c4ccc(C5(F)CC5)cc4)c3CO)cn(C)c2=O)nc1 [II-70, N-{3-[5-(5-Diethylaminomethyl-pyridin-2-ylamino)-1-methyl-6-oxo-1,6-dihydro-pyridin-3-yl]-2-hydroxymethyl-phenyl}-4-(1-fluoro-cyclopropyl)-benzamide]"

# Second part, the molecule before the results:
Structure (SMILES),pIC50 ([1]; Table II pyridinones),pIC50 (Ramos cells),pIC50 ([1]; Table I pyridazinones),melting point
Cn1nc(-c2cccc(CC(=O)NCCOC(C)(C)C)c2)cc(Nc2ccc(C(=O)N3CCOCC3)cn2)c1=O [Compound I-32],,7.49,6.09,220 to 221 °C
CC(C)OC1CN(C(=O)Cc2cccc(-c3cc(Nc4ccc(C(=O)N5CCOCC5)cn4)c(=O)n(C)n3)c2)C1 [Compound I-35],,,6.38,92 to 93 °C
Cn1nc(-c2cccc(NC(=O)c3ccc(C(C)(C)C)cc3)c2)cc(Nc2ccc(C(=O)N3CCOCC3)cn2)c1=O [Compound I-25],,,6.92,229 to 230 °C
COc1nccc(Nc2cc(-c3cccc(NC(=O)c4ccc(C(C)(C)C)cc4)c3C)nn(C)c2=O)n1 [Compound I-17],,6.38,6.98,262 to 264 °C
"Cc1c(-c2cc(Nc3ccc(C(=O)N4CCOCC4)cn3)c(=O)n(C)n2)cccc1-n1cnc2cc(C(C)(C)C)ccc2c1=O [Compound I-8, 7-tert-Butyl-3-(2-methyl-3-{1-methyl-5-[5-(morpholine-4-carbonyl)-pyridin-2-ylamino]-6-oxo-1,6-dihydro-pyridazin-3-yl}-phenyl)-3H-quinazolin-4-one]",,6.69,6.94,188.5 to 191 °C
COc1cc(C(C)(C)C)ccc1C(=O)Nc1cccc(-c2cc(Nc3ccc(C(=O)N4CCOCC4)cn3)c(=O)n(C)n2)c1C [Compound I-7],,,6.57,156.5 to 157 °C
"Cc1c(NC(=O)c2ccc(C(C)(C)C)cc2)cccc1-c1cc(Nc2ccc(C(=O)N3CCOCC3)cn2)c(=O)n(C)n1 [Compound I-1, 4-tert-Butyl-N-(2-methyl-3-{1-methyl-5-[5-(morpholine-4-carbonyl)-pyridin-2-ylamino]-1,6-oxo-dihydro-pyridazin-3-yl}-phenyl)-benzamide]",,,> 8.00,148 to 150 °C
Cn1nc(-c2cccc(CC(=O)NCCC(C)(C)C)c2)cc(Nc2ccc(C(=O)N3CCOCC3)cn2)c1=O [Compound I-43],,,5.20,138 to 139 °C
COc1cc(C(C)(C)C)ccc1C(=O)Nc1cccc(-c2cc(Nc3ccc(C(=O)N4CCOCC4)cn3)c(=O)n(C)n2)c1 [Compound I-30],,,7.23,216 to 217 °C
CC(C)N1CCN(C(=O)Cc2cccc(-c3cc(Nc4ccc(C(=O)N5CCOCC5)cn4)c(=O)n(C)n3)c2)CC1 [Compound I-41],,,5.20,209 to 210 °C
Cc1c(NC(=O)c2ccc(C(C)(C)C)cc2)cccc1-c1cc(Nc2ccc(C(=O)N3CCN(C)CC3)cn2)c(=O)n(C)n1 [Compound I-2],,,7.85,158 to 160 °C
"CNC(=O)Nc1cc(-c2cccc(CC(=O)N3CC(OC(C)(C)C)C3)c2)cn(C)c1=O [II-29, 1-(5-{3-[2-(3-tert-Butoxy-azetidin-1-yl)-2-oxo-ethyl]-phenyl}-1-methyl-2-oxo-1,2-dihydro-pyridin-3-yl)-3-methyl-urea]",5.85,,,125 to 126 °C
Cn1nc(-c2cccc(CC(=O)N3CCC(C(C)(C)C)CC3)c2)cc(Nc2ccc(C(=O)N3CCOCC3)cn2)c1=O [Compound I-42],,,5.63,231 to 232 °C
Cn1nc(-c2cccc(CC(=O)N3CCCC3)c2)cc(Nc2ccc(C(=O)N3CCOCC3)cn2)c1=O [Compound I-33],,,4.79,117 to 118 °C
Cn1nc(-c2cccc(NC(=O)c3ccc(C(C)(C)O)cc3)c2)cc(Nc2ccc(C(=O)N3CCOCC3)cn2)c1=O [Compound I-16],,,6.92,172 to 173 °C
